Measurements as given in patent US10947248B2, “4β-amidotriazole linked podophyllotoxin derivatives as potential anticancer agents” (COUNCIL OF SCIENTIFIC & INDUSTRIAL RESEARCH, priority 2016, dated 2021).
Where two headings read alike, the source gives them in different places.

How the values were obtained:
[1] = test system: DU-145 (human prostate cancer); assay: MTT in vitro cytotoxicity assay, DU-145; type: cell-based; conditions: read-out: IC50 DU-145
[2] = test system: Hela (human cervical cancer); assay: MTT in vitro cytotoxicity assay, Hela; type: cell-based; conditions: read-out: IC50 Hela
HepG2 (liver cancer) = assay: MTT in vitro cytotoxicity assay, HepG2; type: cell-based; conditions: Homo sapiens, read-out: IC50 HepG2
A549 (human lung cancer) = assay: MTT in vitro cytotoxicity assay, A549; type: cell-based; conditions: read-out: IC50 A549
HT-29 (colon cancer) = assay: MTT in vitro cytotoxicity assay, HT-29; type: cell-based; conditions: Homo sapiens, read-out: IC50 HT-29
[3] = test system: MCF-7 (human breast cancer); assay: MTT in vitro cytotoxicity assay, MCF-7; type: cell-based; conditions: read-out: IC50 MCF-7
[4] = test system: human cancer cell lines (Hela, MCF-7, DU-145, A549, HepG2, HT-29); assay: MTT in vitro cytotoxicity assay, all tested human cancer cell lines; type: cell-based; conditions: range over Hela, read-out: IC50 values ranging over all tested human cancer cell lines
Description: The IC50 values (in μM) for compounds 8a, 8c, 8n, 8p, 9c and 9p have been illustrated in Table 1.

Row | Compound | melting point [°C] | IC50 ([1]; DU-145, 48 h) [nM] | IC50 ([2]; HeLa, 48 h) [µM] | IC50 (HepG2 (liver cancer); HepG2, 48 h) [nM] | IC50 (A549 (human lung cancer); A549, 48 h) [nM] | IC50 (HT-29 (colon cancer); HT-29, 48 h) [µM] | IC50 ([3]; MCF7, 48 h) [nM] | IC50 [4] [nM] | IC50 ([1]; DU-145, 48 h of drug treatment, average of three individual experiments) [nM] | IC50 ([2]; Hela, 48 h of drug treatment, average of three individual experiments) [µM] | IC50 (HepG2 (liver cancer); HepG2, 48 h of drug treatment, average of three individual experiments) [nM] | IC50 (A549 (human lung cancer); A549, 48 h of drug treatment, average of three individual experiments) [nM] | IC50 (HT-29 (colon cancer); HT-29, 48 h of drug treatment, average of three individual experiments) [µM] | IC50 ([3]; MCF7, MCF-7, 48 h of drug treatment, average of three individual experiments) [nM]
1 | COc1cc(OC)cc(-n2cc(C(=O)N[C@@H]3c4cc5c(cc4[C@@H](c4cc(OC)c(OC)c(OC)c4)[C@H]4C(=O)OC[C@@H]43)OCO5)nn2)c1 | 145 to 148 |  |  |  |  |  |  |  |  |  |  |  |  | 
2 | COc1cc([C@@H]2c3cc4c(cc3[C@@H](NC(=O)c3cn(-c5cc(OC)c(OC)c(OC)c5)nn3)[C@H]3COC(=O)[C@H]23)OCO4)cc(OC)c1OC | 181 to 183 |  |  |  |  |  |  |  |  |  |  |  |  | 
3 | COc1cc([C@@H]2c3cc4c(cc3[C@@H](NC(=O)c3cn(-c5ccc6c(c5)OCO6)nn3)[C@H]3COC(=O)[C@H]23)OCO4)cc(OC)c1OC | 188 to 191 |  |  |  |  |  |  |  |  |  |  |  |  | 
4 | COc1cc(Cn2cc(C(=O)N[C@@H]3c4cc5c(cc4[C@@H](c4cc(OC)c(OC)c(OC)c4)[C@H]4C(=O)OC[C@@H]43)OCO5)nn2)cc(OC)c1OC | 189 to 192 |  |  |  |  |  |  |  |  |  |  |  |  | 
5 | COc1cc([C@@H]2c3cc4c(cc3[C@@H](NC(=O)c3cn(-c5ccccc5)nn3)[C@H]3COC(=O)[C@H]23)OCO4)cc(OC)c1OC [Compound 8a, N-((5S,5aS,8aR,9R)-8-oxo-9-(3,4,5-trimethoxyphenyl)-5,5a,6,8,8a,9-hexahydrofuro[3′,4′:6,7]naphtho[2,3-d][1,3]dioxol-5-yl)-1-phenyl-1H-1,2,3-triazole-4-carboxamide] | 170 to 172 | 1310 ± 110 | 2.47 ± 0.24 | 1940 ± 130 | 1820 ± 110 | 5.37 ± 0.74 | 1450 ± 460 | 700 to 4000 |  |  |  |  |  | 
6 | COc1ccc(-n2cc(C(=O)N[C@@H]3c4cc5c(cc4[C@@H](c4cc(OC)c(OC)c(OC)c4)[C@H]4C(=O)OC[C@@H]43)OCO5)nn2)cc1 [Compound 8c, 1-(4-methoxyphenyl)-N-((5S,5aS,8aR,9R)-8-oxo-9-(3,4,5-trimethoxyphenyl)-5,5a,6,8,8a,9-hexahydrofuro[3′,4′:6,7]naphtho[2,3-d][1,3]dioxol-5-yl)-1H-1,2,3-triazole-4-carboxamide] | 195 to 197 | 990 ± 70 | 6.49 ± 0.22 | 2790 ± 540 | 1610 ± 380 | 11.4 ± 1.66 | 1110 ± 100 | 700 to 4000 |  |  |  |  |  | 
7 | COc1cc([C@@H]2c3cc4c(cc3[C@@H](NC(=O)c3cn(-c5ccc(C(F)(F)F)cc5)nn3)[C@H]3COC(=O)[C@H]23)OCO4)cc(OC)c1OC [Compound 8n, N-((5S,5aS,8aR,9R)-8-oxo-9-(3,4,5-trimethoxyphenyl)-5,5a,6,8,8a,9-hexahydrofuro[3′,4′:6,7]naphtho[2,3-d][1,3]dioxol-5-yl)-1-(4-(trifluoromethyl)phenyl)-1H-1,2,3-triazole-4-carboxamide] | 190 to 194 | 890 ± 20 | 1.21 ± 0.27 | 1210 ± 270 | 1960 ± 80 | 4.4 ± 0.05 | 1350 ± 70 | 700 to 4000 |  |  |  |  |  | 
8 | COc1cc([C@@H]2c3cc4c(cc3[C@@H](NC(=O)c3cn(-c5ccc(Cl)cc5)nn3)[C@H]3COC(=O)[C@H]23)OCO4)cc(OC)c1OC [Compound 8p, 1-(4-chlorophenyl)-N-((5S,5aS,8aR,9R)-8-oxo-9-(3,4,5-trimethoxyphenyl)-5,5a,6,8,8a,9-hexahydrofuro[3′,4′:6,7]naphtho[2,3-d][1,3]dioxol-5-yl)-1H-1,2,3-triazole-4-carboxamide] | 222 to 225 | 700 | 0.78 | 780 | 1200 | 4.11 | 970 | 700 to 4110 |  |  |  |  |  | 
9 | COc1ccc(Cn2cc(C(=O)N[C@@H]3c4cc5c(cc4[C@@H](c4cc(OC)c(OC)c(OC)c4)[C@H]4C(=O)OC[C@@H]43)OCO5)nn2)cc1 [Compound 9c, 1-(4-methoxybenzyl)-N-((5S,5aS,8aR,9R)-8-oxo-9-(3,4,5-trimethoxyphenyl)-5,5a,6,8,8a,9-hexahydrofuro[3′,4′:6,7]naphtho[2,3-d][1,3]dioxol-5-yl)-1H-1,2,3-triazole-4-carboxamide] | 174 to 177 | 1760 ± 270 | 3.46 ± 0.06 | 1960 ± 70 | 5820 ± 430 | 17.5 ± 0.34 | 3320 ± 550 | 700 to 4000 |  |  |  |  |  | 
10 | COc1cc([C@@H]2c3cc4c(cc3[C@@H](NC(=O)c3cn(Cc5ccc(Cl)cc5)nn3)[C@H]3COC(=O)[C@H]23)OCO4)cc(OC)c1OC [Compound 9p, 1-(4-chlorobenzyl)-N-((5S,5aS,8aR,9R)-8-oxo-9-(3,4,5-trimethoxyphenyl)-5,5a,6,8,8a,9-hexahydrofuro[3′,4′:6,7]naphtho[2,3-d][1,3]dioxol-5-yl)-1H-1,2,3-triazole-4-carboxamide] | 180 to 184 | 2370 ± 80 | 3.57 ± 0.16 | 3540 ± 370 | 8060 ± 60 | 23.7 ± 0.38 | 5300 ± 390 | 700 to 4000 |  |  |  |  |  | 
11 | COc1cc([C@@H]2c3cc4c(cc3[C@@H](O[C@@H]3O[C@@H]5CO[C@@H](C)O[C@H]5[C@H](O)[C@H]3O)[C@H]3COC(=O)[C@H]23)OCO4)cc(OC)c1O [Etoposide, reference compound] |  |  |  |  |  |  |  |  | 2350 ± 50 | 2.71 ± 0.52 | 2840 ± 270 | 1970 ± 170 | 1.87 ± 0.31 | 1620 ± 140
12 | COc1cc([C@@H]2c3cc4c(cc3[C@H](O)[C@H]3COC(=O)[C@H]23)OCO4)cc(OC)c1OC [Podophyllotoxin] |  | 4150 ± 630 | 3.45 ± 0.29 | 6630 ± 170 | 4600 ± 420 | 4.78 ± 0.16 | 3060 ± 240 |  |  |  |  |  |  | 
